Measurements reported in patent publication US20220073536A1 (Rigel Pharmaceuticals, Inc., priority 2003, published 2022).
Where a name gives a salt, the structure may show the parent alone. Read-outs that look alike come from different tables or passages of the source. Blank lines part the entries; values can stand above or below the compound they belong to.

Test system: cultured human mast cells (CHMC)
Assay: CHMC low cell density IgE activation: tryptase assay
Format: cell-based
Conditions: IgE activation
How it was run: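 Tryptase release, fluorogenic substrate, 30 min RT. Prior anti-IgE stimulation of CHMC, 30 min, 37 °C, after 1 hr preincubation at 1000–1500 cells/well in MT; unstimulated wells received MT.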

[1] = low cell density CHMC, tryptase readout, 8 pt, read-out: LD Tryptase, CHMC, IgE, 8 pt
[2] = Homo sapiens, Mast cell, low cell density CHMC, tryptase, 3 pt, read-out: LD Tryptase, CHMC, IgE, 3 pt
[3] = low cell density CHMC, tryptase release, 3 point, read-out: LD Tryptase, CHMC, IgE, 3 pt
[4] = low cell density CHMC, tryptase, 3 pt, read-out: LD Tryptase, CHMC, IgE, 3 pt
[5] = low cell density CHMC, tryptase, 8 pt, read-out: LD Tryptase, CHMC, IgE, 8 pt
[6] = Homo sapiens, Mast cell, low cell density, 8 pt, read-out: LD Tryptase, CHMC, IgE, 8 pt
[7] = Homo sapiens, Mast cell, low cell density, 3 pt, read-out: LD Tryptase, CHMC, IgE, 3 pt
[8] = Homo sapiens, Mast cell, low cell density CHMC, tryptase release, 8 pt, read-out: LD Tryptase, CHMC, IgE, 8 pt
[9] = Homo sapiens, Mast cell, low cell density CHMC, tryptase release, 3 pt, read-out: LD Tryptase, CHMC, IgE, 3 pt
[10] = low cell density, 3 pt, read-out: LD Tryptase, CHMC, IgE, 3 pt
[11] = low cell density, 8 pt, read-out: LD Tryptase, CHMC, IgE, 8 pt
[12] = Homo sapiens, Mast cell, low cell density CHMC, tryptase, 8 pt, read-out: LD Tryptase, CHMC, IgE, 8 pt

Compound: COc1ccc(Nc2nc(Nc3ccc4cnn(C5CCCCC5)c4c3)ncc2F)cc1Cl [Compound 746, N4-(3-Chloro-4-methoxyphenyl)-N2-(1-cyclohexylindazol-6-yl)-5-fluoro-2,4-pyrimidinediamine]
IC50 [2]: < 10 µM

Compound: Cc1cc(Nc2ncc(F)c(Nc3ccc4c(c3)OC(F)(F)O4)n2)cc(C(F)(F)F)c1 [Compound 569]
IC50 [3]: < 10 µM

Compound: COc1ccc(Nc2nc(Nc3ccc4[nH]c(C(F)(F)F)nc4c3)ncc2F)nc1Cl [Compound 883]
IC50 [7]: < 10 µM

Compound: COc1ccc(Nc2ncc(F)c(Nc3ccc4c(c3)NC(=O)CS4(=O)=O)n2)cc1Cl [Compound 304]
IC50 [8]: < 10 µM

Compound: COc1cc(Nc2ncc(F)c(Nc3cc(C)cc(C)c3)n2)cc(C(F)(F)F)c1 [Compound 329]
IC50 [9]: < 10 µM

Compound: Fc1cnc(Nc2cc(Cl)cc(Cl)c2)nc1Nc1ccc2c(c1)OCO2 [Compound 375]
IC50 [2]: < 10 µM

Compound: Cc1cc(Nc2ncc(F)c(Nc3ccc4c(c3)OC(F)(F)O4)n2)cc(C)c1Cl [Compound 566]
IC50 [3]: > 10 µM

Compound: COc1ccc(Nc2ncc(F)c(Nc3ccc4c(c3)NC(=O)C(C)S4)n2)cc1F (racemic) [Compound 298]
IC50 [9]: < 10 µM | IC50 [8]: < 10 µM

Compound: CC1(C)Oc2ccc(Nc3nc(Nc4ccc5c(cnn5CC5CC5)c4)ncc3F)cc2NC1=O [Compound 736, N2-[1-(Cyclopropylmethyl)indazol-5-yl]-N4-(2,2-dimethyl-3-oxo-4H-benz[1,4]oxazin-6-yl)-5-fluoro-2,4-pyrimidinediamine]
IC50 [12]: < 10 µM

Compound: OCc1cc(CO)cc(Nc2ncc(F)c(Nc3ccc4c(c3)OC(F)(F)C(F)(F)O4)n2)c1 [Compound 359]
IC50 [5]: < 10 µM

Compound: N4-[3,4- (Difluoromethylenedioxy)phenyl]-5-fluoro-N2-[2- (N-methylamino)carbonylindol-7-yl]-2,4-pyrimidinediamine [Compound 570]
IC50 [3]: < 10 µM

Compound: COc1ccc(Nc2nc(Nc3ccc(OC)c(OC)c3OC)ncc2F)cc1Cl [Compound 669, N4-(3-Chloro-4-methoxyphenyl)-5-fluoro-N2-(2,3,4-trimethoxyphenyl)-2,4-pyrimidinediamine]
IC50 [2]: > 10 µM

Compound: Cc1cc(C)cc(Nc2ncc(F)c(Nc3ccc4c(c3)NC(=O)CS4)n2)c1 [Compound 301]
IC50 [9]: < 10 µM | IC50 [8]: < 10 µM

Compound: Cc1noc(C)c1Nc1nc(Nc2cccc(-c3ncco3)c2)ncc1F [Compound 534, N4-(3,5-Dimethylisoxazol-4-yl)-5-fluoro-N2-[3-(oxazol-2-yl)phenyl]-2,4-pyrimidinediamine]
IC50 [7]: < 10 µM

Compound: COc1ccc(Nc2nc(Nc3ccc4cnn(CC5CCC5)c4c3)ncc2F)cc1Cl [Compound 730, N4-(3-Chloro-4-methoxyphenyl)-N2-[1-(cyclobutylmethyl)indazol-6-yl]-5-fluoro-2,4-pyrimidinediamine]
IC50 [2]: < 10 µM

Compound: CC1(C)Oc2ccc(Nc3nc(Nc4ccc5c(cnn5CCCN5C(=O)CCCC5=O)c4)ncc3F)cc2NC1=O [Compound 860, N4-(2,2-Dimethyl-3-oxo-4H-benz[1,4]oxazin-6-yl)-N2-[1-[3-(2,6-dioxopiperidino]propyl)indazol-5-yl]-5-fluoro-2,4-pyrimidinediamine]
IC50 [9]: < 10 µM | IC50 [8]: < 10 µM

Compound: COC(=O)c1cc2cc(Nc3ncc(F)c(Nc4ccc(OC)c(N)n4)n3)ccc2o1 [Compound 546]
IC50 [7]: < 10 µM

Compound: COc1cc(Nc2ncc(F)c(Nc3ccc4c(c3)NC(=O)C(C)S4)n2)cc(OC)c1OC (stereo not drawn) [Compound 272]
IC50 [8]: < 10 µM

Compound: Cc1cc(Nc2ncc(F)c(Nc3ccc4c(n3)NC(=O)C(C)(C)O4)n2)cc(C)c1Cl [Compound 684, N2-(4-Chloro-3,5-dimethylphenyl)-N4-(2,2-dimethyl-3-oxo-4H-5-pyrid[1,4]oxazin-6-yl)-5-fluoro-2,4-pyrimidinediamine p-Toluenesulfonic Acid Salt]
IC50 [4]: < 10 µM

Compound: CC1(C)Oc2ccc(Nc3nc(Nc4ccc5c(cnn5CCCNS(=O)(=O)C(F)(F)F)c4)ncc3F)nc2NC1=O [Compound 844, N4-(2,2-Dimethyl-3-oxo-4H-5-pyrid[1,4]oxazin-6-yl)-5-fluoro-N2-[1-[3-(N-trifluoromethylsulfonylamino)propyl]indazol-5-yl]-2,4-pyrimidinediamine]
IC50 (low cell density CHMC, tryptase release, 8 pt, read-out: LD Tryptase, CHMC, IgE, 8 pt): > 10 µM

Compound: O=C1CS(=O)(=O)c2ccc(Nc3nc(Nc4ccc5[nH]ncc5c4)ncc3F)cc2N1 [Compound 310]
IC50 [8]: < 10 µM

Compound: N2- (4-Aminocarbonylphenyl)-N4- (2,2-dimethyl-3-oxo-4H-5-pyrid[1,4]oxazin-6-yl)-5-fluoro-2,4-pyrimidinediamine [Compound 1315]
IC50 [4]: < 10 µM

Compound: Cn1nc(N)c2cc(Nc3ncc(F)c(Nc4ccc5c(c4)NC(=O)C(C)(C)O5)n3)ccc21 [Compound 806, N2-(3-Amino-1-methylindazol-5-yl)-N4-(2,2-dimethyl-3-oxo-4H-benz[1,4]oxazin-6-yl)-5-fluoro-2,4-pyrimidinediamine]
IC50 [8]: < 10 µM

Compound: COc1ccc(Nc2nc(Nc3cc(OC)c(OC)c(OC)c3)ncc2F)nc1N [Compound 545]
IC50 [7]: < 10 µM

Further lines, results first:

IC50 [1]: < 10 µM
Compound: Cc1c(O)cccc1Nc1ncc(F)c(Nc2ccc3c(n2)NC(=O)CO3)n1 [Compound 1063, 5-Fluoro-N2-(3-hydroxy-2-methylphenyl)-N4-(3-oxo-2H,4H-5-pyrid[1,4]oxazin-6-yl)-2,4-pyrimidinediamine]

IC50 [4]: < 10 µM | IC50 [5]: < 10 µM
Compound: CCOC(=O)N1CCN(c2ccc(Nc3ncc(F)c(Nc4ccc5c(n4)NCCO5)n3)cc2)CC1 [Compound 1135, N4-(3,4-Dihydro-2H,4H-5-pyrid[1,4]oxazin-6-yl)-N2-[4-(4-ethoxycarbonylpiperazino)phenyl]-5-fluoro-2,4-pyrimidinediamine]

IC50 [6]: < 10 µM
Compound: CC1(C)Oc2ccc(Nc3nc(Nc4ccc5[nH]c(CN6CCOCC6)nc5c4)ncc3F)cc2NC1=O [Compound 961, N4-(2,2-Dimethyl-3-oxo-4H-benz[1,4]oxazin-6-yl)-5-fluoro-N2-[2-(4-morpholinomethyl)-1H-benzimidazol-5-yl]-2,4-pyrimidinediamine]

IC50 [7]: < 10 µM
Compound: Cn1c(CS(C)(=O)=O)nc2cc(Nc3ncc(F)c(Nc4ccc(Cl)c(Cl)c4)n3)ccc21 [Compound 965]

IC50 [1]: < 10 µM
Compound: CC(=O)N1CCN(c2cccc(Nc3ncc(F)c(Nc4ccc5c(n4)NC(=O)C(C)(C)O5)n3)c2)CC1 [Compound 1076, N2-[3-(4-Acetylpiperazino)phenyl]-N4-(2,2-dimethyl-3-oxo-4H-5-pyrid[1,4]oxazin-6-yl)-5-fluoro-2,4-pyrimidinediamine]

IC50 [2]: > 10 µM
Compound: CN(c1nc(Cl)ncc1F)C1CCC1 [Compound 1133, 2-Chloro-N4-cyclobutyl-5-fluoro-N4-methyl-4-pyrimidineamine]

IC50 [2]: > 10 µM
Compound: CCN1CCN(c2ccc(Nc3ncc(F)c(NC4CC(C)(C)N(C)C(C)(C)C4)n3)cn2)CC1 [Compound 1237]

IC50 [7]: < 10 µM | IC50 [6]: < 10 µM
Compound: CCN(CC)Cc1nc2cc(Nc3ncc(F)c(Nc4ccc5c(c4)NC(=O)[C@H](C)O5)n3)ccc2n1C [Compound 973]

IC50 [2]: > 10 µM
Compound: CCOC(=O)N1CCC(Nc2nc(Nc3ccc(N4CCN(CC)CC4)nc3)ncc2F)CC1 [Compound 1238]

IC50 [2]: < 10 µM
Compound: Cc1cc(Nc2ncc(F)c(NC3(CO)CCCC3)n2)ccc1N1CCN(C)CC1 [Compound 1250]

IC50 [10]: < 10 µM | IC50 [11]: < 10 µM
Compound: Cn1c(CN2CCOCC2)nc2cc(Nc3ncc(F)c(Nc4ccc(Cl)c(Cl)c4)n3)ccc21 [Compound 954, N4-(3,4-Dichlorophenyl)-5-fluoro-N2-[1-methyl-2-(4-morpholinomethyl)benzimidazol-5-yl]-2,4-pyrimidinediamine]

IC50 [7]: < 10 µM | IC50 [6]: < 10 µM
Compound: C[C@@H]1Oc2ccc(Nc3nc(Nc4ccc5c(c4)[nH]c(=O)n5C)ncc3F)cc2NC1=O [Compound 907]

IC50 (low cell density CHMC, tryptase readout, 3 pt, read-out: LD Tryptase, CHMC, IgE, 3 pt): < 10 µM | IC50 [1]: < 10 µM
Compound: COc1ccc(Nc2ncc(F)c(Nc3ccc4c(n3)NC(=O)[C@H](C)O4)n2)cc1Cl [Compound 1081, (S)-N2-(3-Chloro-4-methoxyphenyl)-5-fluoro-N4-(2-methyl-3-oxo-2H,4H-5-pyrid[1,4]oxazin-6-yl)-2,4-pyrimidinediamine]

IC50 [2]: < 10 µM | IC50 [12]: < 10 µM
Compound: NC(=O)c1ccc(Nc2nc(Nc3cccc(O)c3)ncc2F)cc1 [Compound 1334]

IC50 [11]: < 10 µM
Compound: COc1ccc(Nc2nc(Nc3ccc4[nH]c(CN5CCOCC5)nc4c3)ncc2F)cc1Cl [Compound 960, N4-(3-Chloro-4-methoxyphenyl)-5-fluoro-N2-[2-(4-morpholinomethyl)-1H-benzimidazol-5-yl]-2,4-pyrimidinediamine]

IC50 [2]: < 10 µM
Compound: CCOC(=O)N1CCC(Nc2nc(Nc3ccc(N4CCN(C)CC4)c(C)c3)ncc2F)CC1 [Compound 1228]

IC50 [10]: < 10 µM | IC50 [11]: < 10 µM
Compound: Cc1nc2cc(Nc3ncc(F)c(Nc4ccc5c(n4)NC(=O)C(C)(C)O5)n3)ccc2n1CCCNS(C)(=O)=O [Compound 964, N4-(2,2-Dimethyl-3-oxo-4H-5-pyrido[1,4]oxazin-6-yl)-5-fluoro-N2-[2-methyl-1-[3-(N-methylsulfonylamino)propyl]benzimidazol-5-yl]-2,4-pyrimidinediamine]
